# ChEMBL document CHEMBL1128004, “Ketones related to the benzoate 5-HT4 receptor antagonist RS-23597 are high affinity partial agonists” (Bioorg Med Chem Lett, 1994)
# Tests used:
# [1] = biological target: 5-hydroxytryptamine receptor 4 (Homo sapiens) (UniProt Q13639); assay: Intrinsic activity relative to the 5-HT was determined; assay type: functional; settings: Rattus norvegicus
# [2] = biological target: 5-hydroxytryptamine receptor 4 (Homo sapiens) (UniProt Q13639); assay: Compound was tested for antagonist activity against 5-HT4 receptor in rat esophageal muscularis mucosae; assay type: functional, tissue-based; settings: Muscularis mucosa, target entry is the homologue from another species
# [3] = biological target: 5-hydroxytryptamine receptor 4 (Homo sapiens) (UniProt Q13639); assay: Compound was tested for 5-HT4 receptor in rat esophageal muscularis mucosae; Antagonist; assay type: functional; settings: filed as antagonist, target entry is the homologue from another species
# 5-hydroxytryptamine receptor 4 (Homo sapiens), sequence (Q13639 whole entry): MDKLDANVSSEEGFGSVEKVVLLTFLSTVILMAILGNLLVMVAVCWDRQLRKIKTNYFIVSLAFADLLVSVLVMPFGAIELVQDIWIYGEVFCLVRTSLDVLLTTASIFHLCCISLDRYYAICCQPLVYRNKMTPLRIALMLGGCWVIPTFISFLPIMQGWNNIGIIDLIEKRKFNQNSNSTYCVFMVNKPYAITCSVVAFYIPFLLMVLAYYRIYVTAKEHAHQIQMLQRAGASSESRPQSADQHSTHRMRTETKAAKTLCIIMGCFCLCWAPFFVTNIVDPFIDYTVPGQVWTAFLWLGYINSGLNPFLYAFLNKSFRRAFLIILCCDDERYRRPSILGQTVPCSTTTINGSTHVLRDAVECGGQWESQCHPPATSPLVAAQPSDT
SMILES,Intrinsic activity [1],also measured
COc1cc(N)c(Cl)cc1C(=O)NC[C@@H]1CCN2CCC[C@@H]12,0.6,
CCN(CC)CCOC(=O)c1cc(Cl)c(N)cc1OC,,pKb [2]: 7.3
COc1cc(N)c(Cl)cc1C(=O)NCCN1CCCCC1,0.6,
CCN(CC)CCNC(=O)c1cc(Cl)c(N)cc1OC,0.5,
COc1cc(N)c(Cl)cc1C(=O)OCCCN1CCCCC1,,pKb [2]: 7.9
COc1cc(N)c(Cl)cc1C(=O)CCC1CCN(CCCNS(C)(=O)=O)CC1,,Activity [3]: Antagonist

# Further lines, with some results ahead:
Intrinsic activity [1],SMILES,also measured
0.5,COc1cc(N)c(Cl)cc1C(=O)CCC1CCN(CCNS(C)(=O)=O)CC1,
0.5,COc1cc(N)c(Cl)cc1C(=O)OCCN1CCCCC1,
